From PubChem BioAssay (NCI) come the findings set out here.

Among the test systems are SK-MEL-5 melanoma; RXF 393 renal; CCRF-CEM leukemia; NCI-H522 lung; SK-MEL-2 melanoma; K-562 leukemia; MOLT-4 leukemia; HL-60(TB) leukemia; SK-OV-3 ovarian; NCI-H226 lung; U251 CNS; SF-295 CNS; UO-31 renal; LOX IMVI melanoma; RPMI-8226 leukemia; HCT-15 colon; NCI/ADR-RES ovarian; SN12C renal; T-47D breast.
What all share (assay): growth of human tumour cells (NCI), 48 h

The structures appear in SMILES notation.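 All cell lines were grown in 96-well plates and treated with compound for 48 hours. TGI marks complete inhibition of growth.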

As to `CNC(=O)CN(CC(N)=O)C(=O)NC`, the TGI with SK-MEL-5 melanoma, in the assay on RXF 393 renal, in the assay on CCRF-CEM leukemia, in the assay on NCI-H522 lung, with SK-MEL-2 melanoma and in the assay on K-562 leukemia was more than 100 µM each time. Also, the TGI with MOLT-4 leukemia, with HL-60(TB) leukemia, in the assay on SK-OV-3 ovarian, in the assay on NCI-H226 lung, in the assay with U251 CNS and in the assay on SF-295 CNS was more than 100 µM in each case. The TGI in the assay with UO-31 renal, in the assay with LOX IMVI melanoma, with RPMI-8226 leukemia and in the assay with HCT-15 colon was more than 100 µM in each case.
`O=c1[nH]n(Cc2ccccc2CCl)c2ccc([N+](=O)[O-])cc12`: the TGI with SK-MEL-5 melanoma was 30.4 µM; with RXF 393 renal, more than 100 µM; with CCRF-CEM leukemia it was more than 100 µM; in the assay on NCI-H522 lung, 63.2 µM; in the assay with SK-MEL-2 melanoma, more than 100 µM; with K-562 leukemia it was more than 100 µM. Moreover, the TGI was more than 100 µM in the assay on NCI/ADR-RES ovarian; 90.8 µM in the assay on MOLT-4 leukemia; 99.6 µM with HL-60(TB) leukemia; more than 100 µM with SN12C renal; 81.8 µM in the assay on SK-OV-3 ovarian; more than 100 µM with NCI-H226 lung. Moreover, the TGI with U251 CNS, in the assay with SF-295 CNS, with UO-31 renal, in the assay on LOX IMVI melanoma, in the assay on RPMI-8226 leukemia and in the assay on HCT-15 colon was more than 100 µM each time.
Take `O=C(/C=C/c1cccs1)c1ccc(C(=O)/C=C/c2cccs2)cc1`: the TGI in the assay with NCI-H522 lung, with NCI/ADR-RES ovarian, in the assay with MOLT-4 leukemia, in the assay on SN12C renal, in the assay with SK-OV-3 ovarian and in the assay on T-47D breast was more than 100 µM in each case. Besides, the TGI in the assay on NCI-H226 lung, in the assay on U251 CNS, in the assay on SF-295 CNS, with UO-31 renal and in the assay on HCT-15 colon was more than 100 µM in each case.
For `C=C(Cl)C(Br)(CBr)CCC(Br)C(C)(C)Br` (centres undefined), the TGI with SK-MEL-5 melanoma was more than 10 µM; in the assay on RXF 393 renal it was 7.86 µM; in the assay on CCRF-CEM leukemia, more than 10 µM; with NCI-H522 lung, more than 10 µM; in the assay on K-562 leukemia, more than 10 µM; in the assay on MOLT-4 leukemia, more than 10 µM. Moreover, the TGI with HL-60(TB) leukemia is more than 1 µM; with SN12C renal, more than 10 µM; in the assay with SK-OV-3 ovarian, more than 10 µM; in the assay on T-47D breast, more than 1 µM; with NCI-H226 lung, more than 10 µM; in the assay with U251 CNS, more than 10 µM. Moreover, the TGI was more than 10 µM with SF-295 CNS, more than 10 µM in the assay with UO-31 renal and 4.96 µM in the assay on RPMI-8226 leukemia.
Consider `Cc1cc2nc3c(C#N)c(-c4ccccc4)cc(Nc4ccc(F)cc4)n3c2cc1C`, for which the TGI with SK-MEL-5 melanoma was more than 100 µM; in the assay on RXF 393 renal, 61.3 µM; in the assay on NCI-H522 lung it was 30.7 µM; in the assay with NCI/ADR-RES ovarian it was 71.6 µM; in the assay with MOLT-4 leukemia, more than 100 µM; in the assay on SN12C renal, 53.7 µM. The TGI in the assay on SK-OV-3 ovarian was 69.9 µM; in the assay on T-47D breast it was more than 100 µM; in the assay on NCI-H226 lung, 73.7 µM; in the assay on U251 CNS, 16.3 µM; with SF-295 CNS, 76.2 µM; in the assay on LOX IMVI melanoma, 29 µM. Besides, the TGI in the assay on RPMI-8226 leukemia and in the assay with HCT-15 colon was more than 100 µM throughout.
`CCCCCCCCCCCCNC1(C)CNCCCNCCNCCCNC1`: the TGI in the assay on SK-MEL-5 melanoma came out at 3.06 µM; in the assay on RXF 393 renal, 2.93 µM; with NCI-H522 lung, 3.22 µM; with SK-MEL-2 melanoma, 3.34 µM; in the assay on MOLT-4 leukemia, 3.05 µM; with SN12C renal it was 3.05 µM. The TGI with SK-OV-3 ovarian was 3.21 µM; in the assay with NCI-H226 lung it was 3.21 µM; in the assay on U251 CNS, 2.3 µM; in the assay with SF-295 CNS, 2.88 µM; in the assay on UO-31 renal, 5.83 µM; in the assay on LOX IMVI melanoma, 3.25 µM. The molecule further came in with a TGI with RPMI-8226 leukemia of 3.55 µM.
For `Cc1ccc(S(=O)(=O)n2cnc(CC(NC(=O)C3CCC(=O)N3C(=O)OCc3ccccc3)C(=O)N3CCCC3C(=O)NN)c2)cc1` (centres undefined), the TGI in the assay on SK-MEL-5 melanoma, with SK-MEL-2 melanoma, with K-562 leukemia, with MOLT-4 leukemia, in the assay on HL-60(TB) leukemia and in the assay on SN12C renal was more than 100 µM in each case. Also, the TGI with NCI-H226 lung, with U251 CNS, in the assay on UO-31 renal, with RPMI-8226 leukemia and in the assay with HCT-15 colon was more than 100 µM in each case.
As for `COC(=O)c1cc(C#N)[nH]c1-c1cccs1`, the TGI with RXF 393 renal is 86.1 µM; in the assay with CCRF-CEM leukemia, more than 100 µM; in the assay on NCI-H522 lung it was more than 100 µM; with K-562 leukemia, more than 100 µM; with NCI/ADR-RES ovarian it was more than 100 µM; with MOLT-4 leukemia, more than 100 µM. The TGI in the assay with SN12C renal, in the assay with SK-OV-3 ovarian, in the assay on T-47D breast, with NCI-H226 lung, in the assay on U251 CNS and in the assay with SF-295 CNS was more than 100 µM in each case. For the same molecule, the TGI with UO-31 renal, in the assay on RPMI-8226 leukemia and in the assay on HCT-15 colon was more than 100 µM each time.
For the molecule `CCn1c(=O)c2c3ccc(O)cc3oc2c2ccc(O)cc21`, the TGI in the assay on SK-MEL-5 melanoma, with RXF 393 renal, with CCRF-CEM leukemia, in the assay on NCI-H522 lung, in the assay on K-562 leukemia and in the assay with NCI/ADR-RES ovarian was more than 100 µM each time. Besides, the TGI in the assay on MOLT-4 leukemia is more than 100 µM; in the assay on SN12C renal, more than 100 µM; in the assay with SK-OV-3 ovarian it was more than 100 µM; in the assay on T-47D breast, 69.1 µM; in the assay on NCI-H226 lung it was more than 100 µM; in the assay on U251 CNS, more than 100 µM. Also, the TGI in the assay on SF-295 CNS is more than 100 µM; in the assay on UO-31 renal it was 78.3 µM; with HCT-15 colon it was more than 100 µM.
For the molecule `C/C1=C\CC[C@@]2(C)O[C@@H]2[C@H]2OC(=O)C(C)C2C[C@H]1O` (some centres undefined), the TGI with SK-MEL-5 melanoma, in the assay with RXF 393 renal, in the assay with CCRF-CEM leukemia, with NCI-H522 lung, in the assay on SK-MEL-2 melanoma and in the assay with K-562 leukemia was more than 100 µM each time. Also, the TGI with NCI/ADR-RES ovarian, with MOLT-4 leukemia, in the assay on SN12C renal, in the assay on SK-OV-3 ovarian, in the assay with U251 CNS and with SF-295 CNS was more than 100 µM throughout. Besides, the TGI in the assay with UO-31 renal, in the assay on LOX IMVI melanoma, with RPMI-8226 leukemia and in the assay with HCT-15 colon was more than 100 µM in each case.
